Source: US9771343B2, “2-alkyl-or-aryl-substituted tanshinone derivatives, and preparation method and application thereof” (Hangzhou Bensheng Pharmaceutical Co., Ltd., priority 2011, dated 2017)
≈ marks a conversion by molar mass, not a printed value.

Experiments:
[1] = tested on: K562/adr (drug-resistant, chronic myeloid leukemia, CML); test: MTT cell growth inhibition, K562/adr leukemia cells, 72 h; assay type: cell-based; conditions: Homo sapiens, K562/Adr
Experimental: (§1) The standard sample of tanshinone I (TA) and the 2-alkyl- or 2-aromatic-substituted tanshinone I derivatives of the present invention are sufficiently dissolved in dimethylsulfoxide to produce a stock solution of 10 mg/mL, which is refrigerated at 4° C. and stored in dark, and is diluted with cell culture medium to a desired concentration prior to experimentation.
(§2) Obtaining 6000 well-growing leukemia cells and inoculating them into wells of a 96-well cell culture plate. The culture medium is the RPMI-1640 cell culture medium containing 10% fetal bovine serum. After adding on the second day the 2-alkyl- or 2-aromatic-substituted tanshinone I derivatives of different concentrations and mixing uniformly, placing the plate in a carbon dioxide cell incubator (5% CO2) at 37° C. and incubated for 72 hours. Then the viable cell concentration is determined by MTT method. In this experiment, the cell viability in control group (not treated with any compound) is set as 100%, and the cell viability (%) after treatment by the compounds and the half maximum inhibitory concentration for the leukemia cell at 72 hours (IC50 value of 72 hours, μg/mL) are calculated.

[2] = tested on: Kasumi-1 (acute myeloid leukemia M2 type, AML-M2); test: MTT cell growth inhibition, Kasumi-1 leukemia cells, 72 h; assay type: cell-based; conditions: Homo sapiens, Kasumi-1, 72 h
Experimental: as §1, §2

[3] = tested on: NB4 (acute promyelocytic leukemia, AML); test: MTT cell growth inhibition, NB4 leukemia cells, 72 h; assay type: cell-based
Experimental: as §1, §2

[4] = tested on: Jurkat (acute lymphoblastic leukemia, ALL); test: MTT cell growth inhibition, Jurkat leukemia cells, 72 h; assay type: cell-based; conditions: Homo sapiens, 72 h
Experimental: as §1, §2

[5] = tested on: H9 (acute lymphoblastic leukemia, ALL); test: MTT cell growth inhibition, H9 leukemia cells, 72 h; assay type: cell-based
Experimental: as §1, §2

[6] = tested on: RPMI8226 (multiple myeloma); test: MTT cell growth inhibition, RPMI8226 multiple myeloma cells, 72 h; assay type: cell-based, human; conditions: Homo sapiens, RPMI 8226, 72 h
Experimental: as §1, §2

[7] = tested on: A549 (human lung cancer); test: MTT cell growth inhibition, A549 cells, 72 h; assay type: cell-based; conditions: Homo sapiens, A549, 72 h
Experimental: as §1, with “with a” for “with”, “to the” for “to a”
(§3) Obtaining 6000 well-growing human solid tumor cells and inoculating them into wells of a 96-well cell culture plate. The culture medium is DMEM High Glucose cell culture medium containing 10% fetal bovine serum. The plate is placed in a carbon dioxide cell incubator (5% CO2) at 37° C. and incubated for 24 hours. After adding the 2-alkyl- or 2-aromatic-substituted tanshinone I derivatives of different concentrations and mixing uniformly, the plate is placed in a carbon dioxide cell incubator (5% CO2) at 37° C. and incubated for 72 hours. Then the viable cell concentration is determined by MTT method. In this experiment, the cell viability in control group (not treated with any compound) is set as 100%, and the cell viability (%) after treatment by the compounds and the half maximum inhibitory concentration for the leukemia cell at 72 hours (IC50 value of 72 hours, μg/mL) are calculated.

[8] = tested on: PANC-1 (pancreatic cancer); test: MTT cell growth inhibition, PANC-1 cells, 72 h; assay type: cell-based, human; conditions: Homo sapiens, PANC-1, 72 h
Experimental: as §1, with “with a” for “with”, “to the” for “to a”
as §3

[9] = tested on: Becap37 (human breast cancer cell); test: MTT cell growth inhibition, Becap37 cells, 72 h; assay type: cell-based
Experimental: as §1, with “with a” for “with”, “to the” for “to a”
as §3

[10] = tested on: MG63 (osteosarcoma); test: MTT cell growth inhibition, MG63 cells, 72 h; assay type: cell-based, human; conditions: Homo sapiens, MG-63, 72 h
Experimental: as §1, with “with a” for “with”, “to the” for “to a”
as §3

[11] = tested on: Hep G2 (human liver cancer cell); test: MTT cell growth inhibition, Hep G2 cells, 72 h; assay type: cell-based
Experimental: as §1, with “with a” for “with”, “to the” for “to a”
as §3

[12] = tested on: RKO (human colon adenocarcinoma cell); test: MTT cell growth inhibition, RKO cells, 72 h; assay type: cell-based
Experimental: as §1, with “with a” for “with”, “to the” for “to a”
as §3

[13] = tested on: U87 MG (malignant glioma cell); test: MTT cell growth inhibition, U87 MG cells, 72 h; assay type: cell-based, human
Experimental: as §1, with “with a” for “with”, “to the” for “to a”
as §3

[14] = tested on: Hela (human cervical cancer cell); test: MTT cell growth inhibition, Hela cells, 72 h; assay type: cell-based
Experimental: as §1, with “with a” for “with”, “to the” for “to a”
as §3

[15] = tested on: CaES-17 (esophageal cancer cell); test: MTT cell growth inhibition, CaES-17 cells, 72 h; assay type: cell-based, human; conditions: Homo sapiens, CaEs17, CaEs-17, 72 h
Experimental: as §1, with “with a” for “with”, “to the” for “to a”
as §3

[16] = tested on: CNE (nasopharyngeal carcinoma cell); test: MTT cell growth inhibition, CNE cells, 72 h; assay type: cell-based, human; conditions: Homo sapiens, CNE, 72 h
Experimental: as §1, with “with a” for “with”, “to the” for “to a”
as §3

[17] = tested on: Hep-2 (laryngeal carcinoma); test: MTT cell growth inhibition, Hep-2 cells, 72 h; assay type: cell-based, human; conditions: Homo sapiens, HEp-2, 72 h
Experimental: as §1, with “with a” for “with”, “to the” for “to a”
as §3

[18] = tested on: MGC 803 (human gastric cancer cell); test: MTT cell growth inhibition, MGC 803 cells, 72 h; assay type: cell-based
Experimental: as §1, with “with a” for “with”, “to the” for “to a”
as §3

[19] = tested on: PC-3 (prostate cancer); test: MTT cell growth inhibition, PC-3 cells, 72 h; assay type: cell-based, human
Experimental: as §1, with “with a” for “with”, “to the” for “to a”
as §3

[20] = tested on: SK-OV-3 (ovarian cancer cell); test: MTT cell growth inhibition, SK-OV-3 cells, 72 h; assay type: cell-based, human
Experimental: as §1, with “with a” for “with”, “to the” for “to a”
as §3

IC50 ([1]; read-out: IC50): 1.08 µg/mL (≈ 2.72 µM)
IC90 ([1]; read-out: IC90): 3.6 µg/mL (≈ 9.08 µM)
IC50 ([2]; read-out: IC50): 3.85 µg/mL (≈ 9.71 µM)
IC90 ([2]; read-out: IC90): 17.5 µg/mL (≈ 44.1 µM)
IC50 ([3]; NB4, 72 h, read-out: IC50): 0.2 µg/mL (≈ 0.505 µM)
IC90 ([3]; NB4, 72 h, read-out: IC90): 1 µg/mL (≈ 2.52 µM)
IC50 ([4]; read-out: IC50): 0.84 µg/mL (≈ 2.12 µM)
IC90 ([4]; read-out: IC90): > 16 µg/mL
IC50 ([5]; H9, 72 h, read-out: IC50): 0.7 µg/mL (≈ 1.77 µM)
IC90 ([5]; H9, 72 h, read-out: IC90): 1.98 µg/mL (≈ 4.99 µM)
IC50 ([6]; read-out: IC50): 1 µg/mL (≈ 2.52 µM)
IC90 ([6]; read-out: IC90): 16.6 µg/mL (≈ 41.8 µM)
IC50 ([7]; read-out: IC50): 16.6 µg/mL (≈ 41.9 µM)
IC90 ([7]; read-out: IC90): > 16 µg/mL
IC50 ([8]; read-out: IC50): 5.48 µg/mL (≈ 13.8 µM)
IC90 ([8]; read-out: IC90): > 16 µg/mL
IC50 ([9]; Homo sapiens, Becap-37, 72 h, read-out: IC50): 1.28 µg/mL (≈ 3.23 µM)
IC90 ([9]; Homo sapiens, Becap-37, 72 h, read-out: IC90): > 16 µg/mL
IC50 ([10]; read-out: IC50): 1.05 µg/mL (≈ 2.65 µM)
IC90 ([10]; read-out: IC90): > 16 µg/mL
IC50 ([11]; Homo sapiens, HepG2, Hep G2, 72 h, read-out: IC50): 1.94 µg/mL (≈ 4.89 µM)
IC90 ([11]; Homo sapiens, HepG2, Hep G2, 72 h, read-out: IC90): > 16 µg/mL
IC50 ([12]; Homo sapiens, RKO, 72 h, read-out: IC50): 1.53 µg/mL (≈ 3.86 µM)
IC90 ([12]; Homo sapiens, RKO, 72 h, read-out: IC90): > 16 µg/mL
IC50 ([13]; Homo sapiens, U-87 MG, U87-MG, 72 h, read-out: IC50): 0.5 µg/mL (≈ 1.26 µM)
IC90 ([13]; Homo sapiens, U-87 MG, U87-MG, 72 h, read-out: IC90): > 16 µg/mL
IC50 ([14]; Homo sapiens, HeLa, 72 h, read-out: IC50): 0.5 µg/mL (≈ 1.26 µM)
IC90 ([14]; Homo sapiens, HeLa, 72 h, read-out: IC90): 16 µg/mL (≈ 40.4 µM)
IC50 ([15]; read-out: IC50): 6.83 µg/mL (≈ 17.2 µM)
IC90 ([15]; read-out: IC90): > 16 µg/mL
IC50 ([16]; read-out: IC50): 15 µg/mL (≈ 37.8 µM)
IC90 ([16]; read-out: IC90): > 16 µg/mL
IC50 ([17]; read-out: IC50): 8 µg/mL (≈ 20.2 µM)
IC90 ([17]; read-out: IC90): > 16 µg/mL
IC50 ([18]; Homo sapiens, MGC-803, 72 h, read-out: IC50): 0.38 µg/mL (≈ 0.959 µM)
IC90 ([18]; Homo sapiens, MGC-803, 72 h, read-out: IC90): 3.3 µg/mL (≈ 8.32 µM)
IC50 ([19]; Homo sapiens, PC-3, 72 h, read-out: IC50): 6.49 µg/mL (≈ 16.4 µM)
IC90 ([19]; Homo sapiens, PC-3, 72 h, read-out: IC90): > 16 µg/mL
IC50 ([20]; Homo sapiens, SK-OV-3, 72 h, read-out: IC50): 11.1 µg/mL (≈ 28 µM)
IC90 ([20]; Homo sapiens, SK-OV-3, 72 h, read-out: IC90): > 16 µg/mL
SMILES: Cc1c(-c2ccc(C(=O)O)cc2)oc2c1C(=O)C(=O)c1c-2ccc2c(C)cccc12 [BS-TA-302]
improvement of anti-NB4 activity as compared with tanshinone I per se ([3]; NB4, vs tanshinone I): ~5 fold
improvement of anti-H9 activity as compared with tanshinone I per se ([5]; H9, vs tanshinone I): ~5 fold
anti-Becap37 activity (in words) ([9]; Table 2): superior to that of tanshinone I per se
anti-Hep G2 activity (in words) ([11]; Table 2): superior to that of tanshinone I per se
anti-RKO activity (in words) ([12]; Table 2): superior to that of tanshinone I per se
anti-U87 MG activity (in words) ([13]; Table 2): superior to that of tanshinone I per se
anti-Hela activity (in words) ([14]; Table 2): superior to that of tanshinone I per se
anti-MGC 803 activity (in words) ([18]; Table 2): significantly improves
anti-PC-3 activity (in words) ([19]; Table 2): significantly improves
anti-SK-OV-3 activity (in words) ([20]; Table 2): superior to that of tanshinone I per se
